SMILES strings stand for the structures. Where only a bound is given, the exact number is not on record here.

Consider 3 molecules from US10179125B2, “Substituted pyridines as bromodomain inhibitors” (Zenith Epigenetics Ltd., priority 2014, dated 2019).

Test [1] has as its target T1, Brd4 bromodomain 1 (BRD4(1)) (Homo sapiens, UniProt O60885).
T1 construct: made in house; host or cells: E. coli BL21(DE3)
The experiment in a line: Inhibition of tetra-acetylated histone H4 binding to BET bromodomain (HTRF/FRET). As to conditions: His-tagged bromodomain 200 nM, biotinylated tetra-acetylated histone H4 peptide, 2 h room temperature. The method, boiled down: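 His-tagged BRD4(1) (200 nM, E. coli-expressed) incubated with biotinylated tetra-acetylated histone H4 peptide (25-50 nM) plus Eu-cryptate streptavidin and XL665 anti-His, with compound (0.2% DMSO), 2 h at room temperature in HEPES pH 7.4 buffer. HTRF 665/620 nm ratio decrease gives IC50.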

The subject of the next test is cMYC. The experiment in a line: Inhibition of cMYC expression in MV4-11 cells (real-time PCR). The test is classed as cell-based, Human. The note with it: Homo sapiens, 3 h, cMYC mRNA, read-out: c-myc activity. The method, boiled down: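 MV4-11 cells (2.5×10^4/well) treated 3 h at 37° C with compound in IMDM/10% FBS, 0.1% DMSO vehicle, in triplicate. cMYC mRNA quantified by one-step TaqMan RT-qPCR, Ct normalised to cyclophilin; fold expression relative to DMSO control.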
For orientation: Quantitative PCR measures a nucleic acid by following its amplification.

The next test has as its system Human AML MV-4-11 cells. The experiment in a line: Inhibition of cell proliferation in MV4-11 cells (CellTiter Aqueous One). The format is cell-based. The note with it: Homo sapiens, 72 h. The method, boiled down:
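MV4-11 cells (5×10^4/well) in IMDM + 10% FBS were treated with graded compound or 0.1% DMSO for 72 h at 37 °C, 5% CO2, in triplicate. CellTiter Aqueous One was added for 3–4 h and absorbance read at 490 nm. Background-corrected signal was expressed relative to DMSO and used to calculate IC50.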

Another test relates to hIL-6. The experiment in a line: Inhibition of hIL-6 mRNA transcription in LPS-stimulated U937 cells. The format is cell-based, Human. The note with it: Homo sapiens, U-937, PMA-differentiated U937 cells, 1 h pretreatment, LPS 3 h, read-out: IL-6 activity. The method in brief: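 U937 cells differentiated 3 days with 60 ng/mL PMA, pretreated 1 h with compound (0.1% DMSO), then stimulated with 1 ug/mL E. coli LPS for 3 h at 37 °C. IL-6 mRNA measured by one-step TaqMan qRT-PCR, normalized to cyclophilin; fold expression relative to control, triplicate wells.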

Another test deals with hIL-17. The experiment in a line: Inhibition of hIL-17 mRNA transcription in OKT3-stimulated peripheral blood mononuclear cells. The test is classed as cell-based. As to conditions: human PBMC, OKT3 antibody 6 h, read-out: IL-17 activity. The protocol: Human peripheral blood mononuclear cells were plated (2.0×10^5 cells per well) in a 96-well plate in 45 μL OpTimizer T Cell expansion media (Life Technologies) containing 20 ng/ml IL-2 and penicillin/streptomycin. The cells were treated with increasing concentrations of the test compound or DMSO (0.1%), and incubated at 37° C., 5% CO2 for 1 h before addition of 10× stock OKT3 antibody at 10 ug/ml in media. Triplicate wells were used for each concentration, Cells were incubated at 37° C., 5% CO2 for 6 h before the cells were harvested. At time of harvest, cells were pelleted by centrifugation at 800 rpm for 5 min. Cells were harvested using the mRNA Catcher PLUS kit according to manufacturer's instructions. The eluted mRNA was then used in a one-step quantitative real-time PCR reaction, using components of the RNA UltraSense™ One-Step Kit (Life Technologies) together with Applied Biosystems TaqMan® primer-probes for hIL-17 and Cyclophilin. Real-time PCR plates were run on a ViiA™ 7 real time PCR machine (Applied Biosystems), data was analyzed, normalizing the Ct values for hIL-17 to an internal control, prior to determining the fold induction of each unknown sample, relative to the control.

In the next test the test system is hApoA-I. As to the kind of experiment: Up-regulation of hApoA-1 mRNA transcription in Huh7 cells. The test is classed as cell-based. The note with it: EC170, Huh7 cells, 48 h. On the procedure:
In this example, hApoA-I mRNA in tissue culture cells was quantitated to measure the transcriptional up-regulation of hApoA-I when treated with a compound of the present disclosure.
Huh7 cells (2.5×10^5 per well) were plated in a 96-well plate using 100 μL DMEM per well, (Gibco DMEM supplemented with penicillin/streptomycin and 10% FBS), 72 h before the addition of the compound. The cells are treated with increasing concentrations of the compound or […] (0.1%), and incubated at 37° C., 5% CO2 for 48 h. Spent media was removed from the Huh-7 cells and placed on ice for immediate use with the “LDH cytotoxicity assay Kit II” from Abcam. The cells remaining in the plate were rinsed with 100 μL PBS. Cells were harvested using the mRNA Catcher PLUS kit according to manufacturer's instructions. The eluted mRNA was then used in a one-step quantitative real-time PCR reaction, using components of the RNA UltraSense™ One-Step Kit (Life Technologies) together with Applied Biosystems TaqMan® primer-probes for hApoA-I and Cyclophilin. Real-time PCR plates were run on a ViiA™7 real time PCR machine (Applied Biosystems), data was analyzed, normalizing the Ct values for hApoA-1 to an internal control, prior to determining the fold induction of each unknown sample, relative to the control.

In the case of `COc1ncc(-c2c(C)noc2C)cc1NCc1ccsc1` [Example 9, 5-(3,5-dimethylisoxazol-4-yl)-2-methoxy-N-(thiophen-3-ylmethyl)pyridin-3-amine], the IC50 in test [1] is ≤ 300 nM; with cMYC, 300 to 3000 nM; in the test with Human AML MV-4-11 cells, 300 to 3000 nM; with hIL-6, ≤ 300 nM; in the test with hIL-17, 300 to 3000 nM. The ApoA-1 activity entry in the test with hApoA-I was “++ (EC170 value between 0.3 and 3 μM were deemed to be very active (++))”.
As to `COc1ncc(-c2c(C)noc2C)cc1Nc1cccnc1` [Example 1, 5-(3,5-dimethylisoxazol-4-yl)-2-methoxy-N-(pyridin-3-yl)pyridin-3-amine], the IC50 in test [1] lay in the range of 300 to 3000 nM; with cMYC it was 3000 to 30000 nM; in the test with Human AML MV-4-11 cells it was 3000 to 30000 nM; with hIL-6 it was 3000 to 30000 nM. Moreover, the ApoA-1 activity entry in the test with hApoA-I was “++ (EC170 value between 0.3 and 3 μM were deemed to be very active (++))”.
Turning to `COc1ncc(-c2c(C)noc2C)cc1NCc1ccccc1` [Example 2, N-benzyl-5-(3,5-dimethylisoxazol-4-yl)-2-methoxypyridin-3-amine], the IC50 is ≤ 300 nM in test [1]; 300 to 3000 nM with cMYC; 300 to 3000 nM in the test with Human AML MV-4-11 cells; 300 to 3000 nM in the test with hIL-6; 300 to 3000 nM in the test with hIL-17. In addition, the ApoA-1 activity entry with hApoA-I was “++ (EC170 value between 0.3 and 3 μM were deemed to be very active (++))”.
